{
  "source": "ChEMBL document CHEMBL5728791",
  "about": "“Heteroaromatic derivatives as NIK inhibitors” (2021)",
  "data": [
    {"biological_target": "Mitogen-activated protein kinase kinase kinase 14 (Homo sapiens, UniProt Q99558)", "sequence (Q99558 whole entry)": "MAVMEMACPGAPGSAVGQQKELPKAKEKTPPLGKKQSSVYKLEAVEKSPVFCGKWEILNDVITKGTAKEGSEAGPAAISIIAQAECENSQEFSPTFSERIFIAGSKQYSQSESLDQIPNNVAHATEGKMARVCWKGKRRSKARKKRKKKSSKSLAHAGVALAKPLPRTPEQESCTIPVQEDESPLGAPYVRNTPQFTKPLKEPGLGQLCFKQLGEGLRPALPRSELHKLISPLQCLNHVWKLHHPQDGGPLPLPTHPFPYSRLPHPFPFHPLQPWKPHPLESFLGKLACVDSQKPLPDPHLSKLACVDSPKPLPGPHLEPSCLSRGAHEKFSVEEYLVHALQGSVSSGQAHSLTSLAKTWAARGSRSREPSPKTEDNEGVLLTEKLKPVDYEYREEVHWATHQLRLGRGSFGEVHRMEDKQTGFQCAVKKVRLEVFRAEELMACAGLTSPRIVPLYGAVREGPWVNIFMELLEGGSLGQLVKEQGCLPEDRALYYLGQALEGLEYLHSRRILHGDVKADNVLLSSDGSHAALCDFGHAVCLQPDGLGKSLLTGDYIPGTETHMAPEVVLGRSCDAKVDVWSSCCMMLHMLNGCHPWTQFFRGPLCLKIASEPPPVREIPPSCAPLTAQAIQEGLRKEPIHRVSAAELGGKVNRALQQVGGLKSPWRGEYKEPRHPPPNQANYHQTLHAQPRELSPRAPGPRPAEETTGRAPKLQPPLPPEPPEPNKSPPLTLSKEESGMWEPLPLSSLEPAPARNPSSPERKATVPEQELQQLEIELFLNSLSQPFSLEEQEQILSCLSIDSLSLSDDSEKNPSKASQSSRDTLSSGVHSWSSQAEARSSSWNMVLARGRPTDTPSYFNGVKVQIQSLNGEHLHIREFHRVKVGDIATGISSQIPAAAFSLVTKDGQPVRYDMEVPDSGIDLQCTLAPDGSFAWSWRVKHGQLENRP", "assay": "Inhibition of auto-phosphorylation of recombinant human NF-kappaB-inducing kinase (NIK/MAP3K14) activity: NIK/MAP3K14 auto-phosphorylation activity was measured using the AlphaScreen® (αscreen) format (Perkin Elmer). All compounds tested were dissolved in dimethyl sulfoxide (DMSO) and further dilutions were made in assay buffer. Final DMSO concentration was 1% (v/v) in assays. Assay buffer was 50 mM Tris pH 7.5 containing 1 mM EGTA (ethylene glycol tetraacetic acid), 1 mM DTT (dithiothreitol), 0.1 mM Na3VO4, 5 mM MgCl2, 0.01% Tween® 20. Assays were carried out in 384 well Alphaplates (Perkin Elmer). Incubations consisted of compound, 25 microM Adenosine-5′-triphosphate (ATP), and 0.2 nM NIK/MAP3K14. Incubations were initiated by addition of GST-tagged NIK/MAP3K14 enzyme, carried out for 1 h at 25° C. and terminated by addition of stop buffer containing anti-phospho-IKK Ser176/180 antibody. Protein A Acceptor and Glutathione-Donor beads were added before reading using an EnVision® Multilabel Plate Reader (Perkin Elmer). Signal obtained in the wells containing blank samples was subtracted from all other wells and IC50's were determined by fitting a sigmoidal curve to % inhibition of control versus Log10 compound concentration.", "units": {"IC50": "nM"}, "values": [
      {"smiles": "Cc1cc(Nc2nccc(-c3cc(C#N)c4c(c3)C(C)(CO)CN4)n2)n(CCN(C)C)n1", "note": "(stereo not drawn)", "IC50": 21},
      {"smiles": "COCCCn1nc(C)cc1Nc1nccc(-c2cc(C#N)c3c(c2)[C@@](C)(CO)CN3)n1", "IC50": 4},
      {"smiles": "Cc1nn(C)cc1Nc1nccc(-c2cc(C#N)c3c(c2)C(C)(CO)CN3)n1", "note": "(stereo not drawn)", "IC50": 3.2}
    ]}
  ]
}
